Like-named read-outs stand apart in the source and are kept apart here.
Experiments:
Assay type in all cases: cell-based
[1] = test system: MalMe3M; experiment: MTT assay (anti-proliferative activity); conditions: 96 h continual exposure, read-out: IC 50 MalMe3M
Experimental: (§1) The MTT assay was used initially to determine the anti-proliferative activity of the test compounds. In the MTT assay a yellow thiazolyl blue tetrazolium bromide salt (MTT) is reduced, in metabolically active cells, to form insoluble purple formazan crystals which are solubilised by the addition of dimethyl sulphoxide (DMSO).
(§2) Wells containing medium only were used as blanks. Following the attachment period, cells were treated with appropriate drug concentrations (20 μl added per well). 40 mg/ml stock drug solutions, in DMSO, were stored at −20° C. and on the day of drug treatment working solutions of 4 mg/ml were prepared in medium which was further diluted to achieve final drug dilution volumes of 20 μl. Initial screening was determined over a concentration range of 1-200 μg/ml. […] Cells were exposed to drug for 96 h continual exposure (37° C., 5% CO2). Following the 96 h incubation, 50 μl MTT solution (1 g MTT/500 ml PBS) was added per well and the plates were further incubated for 4 h (37° C., 5% CO2). After incubation the MTT and medium was removed from the wells and 100 μl DMSO added per well. Plates were agitated on an orbital mixer platform (Stuart Scientific) for 10 minutes. Absorbance was measured at 570 nm on a Biotrak II (Amersham Bioscience) plate reader. IC50 values were calculated comparing control and drug treated cells.

[2] = test system: SkMel28; experiment: MTT assay (anti-proliferative activity); conditions: read-out: IC 50 SkMel28
Experimental: as §1, §2

[3] = test system: MCF-7; experiment: MTT assay (anti-proliferative activity); conditions: read-out: IC 50 MCF-7
Experimental: as §1, §2

[4] = test system: MDA-MB-468; experiment: MTT assay (anti-proliferative activity); conditions: read-out: IC 50 MDA-MB-468
Experimental: as §1, §2

[5] = test system: LNCAP; experiment: MTT assay (anti-proliferative activity)
Source text: as §1, with “(DMSO). Absorbance readings can then be determined spectrophotometrically and a relationship established between control untreated cells and drug treated cells enabling the quantification of anti-proliferative changes as a result of drug treatment (Mosmann, 1983).” for “(DMSO).”
(§3) Wells containing medium only were used as blanks. Following the attachment period, cells were treated with appropriate drug concentrations (20 μl added per well). 40 mg/ml stock drug solutions, in DMSO, were stored at −20° C. and on the day of drug treatment working solutions of 4 mg/ml were prepared in medium which was further diluted to achieve final drug dilution volumes of 20 μl. Initial screening was determined over a concentration range of 1-200 μg/ml. For potent compounds the assay was repeated over a narrower concentration range to determine accurate IC50 values. Cells were exposed to drug for 96 h continual exposure (37° C., 5% CO2). Following the 96 h incubation, 50 μl MTT solution (1 g MTT/500 ml PBS) was added per well and the plates were further incubated for 4 h (37° C., 5% CO2). After incubation the MTT and medium was removed from the wells and 100 μl DMSO added per well. Plates were agitated on an orbital mixer platform (Stuart Scientific) for 10 minutes. Absorbance was measured at 570 nm on a Biotrak II (Amersham Bioscience) plate reader. IC50 values were calculated comparing control and drug treated cells.

[6] = test system: PC3; experiment: MTT assay (anti-proliferative activity)
Source text: as §1, with “(DMSO). Absorbance readings can then be determined spectrophotometrically and a relationship established between control untreated cells and drug treated cells enabling the quantification of anti-proliferative changes as a result of drug treatment (Mosmann, 1983).” for “(DMSO).”
as §3

[7] = test system: HCT+/+; experiment: MTT assay (anti-proliferative activity)
Source text: as §1, with “(DMSO). Absorbance readings can then be determined spectrophotometrically and a relationship established between control untreated cells and drug treated cells enabling the quantification of anti-proliferative changes as a result of drug treatment (Mosmann, 1983).” for “(DMSO).”
as §3

[8] = test system: ZR-75-1; experiment: MTT assay (anti-proliferative activity)
Source text: as §1, with “(DMSO). Absorbance readings can then be determined spectrophotometrically and a relationship established between control untreated cells and drug treated cells enabling the quantification of anti-proliferative changes as a result of drug treatment (Mosmann, 1983).” for “(DMSO).”
as §3

[9] = test system: HCT−/−; experiment: MTT assay (anti-proliferative activity)
Source text: as §1, with “(DMSO). Absorbance readings can then be determined spectrophotometrically and a relationship established between control untreated cells and drug treated cells enabling the quantification of anti-proliferative changes as a result of drug treatment (Mosmann, 1983).” for “(DMSO).”
as §3

[10] = test system: PNT2; experiment: MTT assay (anti-proliferative activity)
Source text: as §1, with “(DMSO). Absorbance readings can then be determined spectrophotometrically and a relationship established between control untreated cells and drug treated cells enabling the quantification of anti-proliferative changes as a result of drug treatment (Mosmann, 1983).” for “(DMSO).”
as §3

[11] = test system: H23; experiment: MTT assay (anti-proliferative activity)
Source text: as §1, with “(DMSO). Absorbance readings can then be determined spectrophotometrically and a relationship established between control untreated cells and drug treated cells enabling the quantification of anti-proliferative changes as a result of drug treatment (Mosmann, 1983).” for “(DMSO).”
as §3

[12] = test system: HT29; experiment: MTT assay (anti-proliferative activity)
Source text: as §1, with “(DMSO). Absorbance readings can then be determined spectrophotometrically and a relationship established between control untreated cells and drug treated cells enabling the quantification of anti-proliferative changes as a result of drug treatment (Mosmann, 1983).” for “(DMSO).”
as §3

[13] = test system: RKO; experiment: MTT assay (anti-proliferative activity)
Source text: as §1, with “(DMSO). Absorbance readings can then be determined spectrophotometrically and a relationship established between control untreated cells and drug treated cells enabling the quantification of anti-proliferative changes as a result of drug treatment (Mosmann, 1983).” for “(DMSO).”
as §3

[14] = test system: breast cancer (MDA-MB-468 and MCF-7 cell lines) and melanoma cell lines (MalMe3, SkMe128); experiment: Cell cycle analysis by flow cytometry (propidium iodide); apoptosis as cells in sub G0/G1 (pre G0) peak; conditions: following treatment with IC70 concentration of compound
Experimental: Assessment of cell cycle analysis was performed using propidium iodide staining of cells and subsequent analysis on a Beckton Dickinson flow cytometer. […] The following day the medium was removed and replaced with 5 ml medium per flask containing the appropriate drug concentrations to be tested. 40 mg/ml stock drug solutions in DMSO were stores at −20° C. and on the day off drug treatment working solutions of 4 mg/ml were prepared in medium from which the final drug dilutions were prepared. Cells were maintained in an incubator (37° C., 5% CO2) for up to 96 h post treatment. After 24, 48, 72 or 96 h time points the medium from each flask was collected, stored on ice, and the remaining cells in the flasks were trypsinised by aiding 1 ml trypsin-EDTA solution to each flask. Cells were replaced into the incubator for 10 min to allow them to detach from the plastic plate. The cells in each flask were collected by adding the appropriate medium removed from each flask back to the corresponding flask and then placing medium containing both the attached and floating cells into a 15 ml tube. Cells were centrifuged at 4° C. for 5 min at 1500 rpm and the supernatant removed from each tube. The remaining cells were washed twice in ice cold PBS and then fixed in ice cold methanol overnight at −20° C. On the day of analysis of cells each tube was centrifuged at 4° C. for 5 min at 1500 rpm and the methanol removed and the cells washed twice in ice cold PBS. 20 μl propidium iodide solution (1 mg/ml) and 20 μl RNase A (10 mg/ml solution) were added to 1 ml PBS per tube and the cells were incubated for 30 min at 37° C. Cells were analysed on the flow cytometer and cell cycle changes were assessed.

[15] = Synergy with known cancer drugs measured using an MTT assay (FIGS. 9a-9c); conditions: ALM-54 at 0.5 μg
Source text: as §1, with “(DMSO). Absorbance readings can then be determined spectrophotometrically and a relationship established between control untreated cells and drug treated cells enabling the quantification of anti-proliferative changes as a result of drug treatment (Mosmann, 1983).” for “(DMSO).”
as §3

[16] = test system: caspase 3 in MDA-MB-468 breast cancer cells; experiment: Western blotting (immunoblot), caspase 3 cleavage; conditions: concentrations similar to those required to kill MDA-MB-468 breast cancer cells
Experimental: Western blotting was used to assess drug induced changes of cellular proteins. Cells were seeded in P90 tissue culture vessels and treated with drugs at a range of concentrations for 72 and 96 h. Following incubation of cells for the required duration the medium was collected from the cells and attached cells were scraped from the tissue culture vessel and collected into the medium. Excess medium was removed by centrifugation at 4° C. for 5 minutes at […] and the supernatant removed from each tube. The remaining cells were washed twice in ice cold PBS and then incubated on ice with protein extraction buffer (10 mM Tris-HCl, 150 mM NaCl, 1 mM EDTA, 1% Triton-X, 0.1% SDS and a protease inhibitor) for 20 min. Cells were sonicated and centrifuged for 5 min at 4° C. and the supernatant removed for subsequent analysis. Protein samples were stored at −70° C. until analyses. 8, 10 or 12% acrylamide gels were prepared and used depending on size of protein to be determined. Protein concentrations were determined using the BCA™ (bicinchoninic acid) protein determination assay (Pierce) according to manufacturer's guidelines and 30-50 μg protein samples were loaded and separated on the acrylamide gels. Gels were ran at 150V for approximately 2 h at 4° C. Following separation of the protein samples each was transferred to a PVDF transfer membrane (Hybond-P) overnight at 4° C. at 40V. […]

[17] = test system: H157; experiment: MTT assay (anti-proliferative activity); conditions: Homo sapiens, NCI-H157
Source text: as §1, with “(DMSO). Absorbance readings can then be determined spectrophotometrically and a relationship established between control untreated cells and drug treated cells enabling the quantification of anti-proliferative changes as a result of drug treatment (Mosmann, 1983).” for “(DMSO).”
as §3

In the case of CC1Cc2ccc(C(=O)NC(Cc3ccccc3)C(=O)O)c(O)c2C(=O)O1 (mixture of isomers) [ALM-54], the IC50 [1] is reported as 13.5 µM, the IC50 ([2]; 96 h continual exposure) is reported as 46 µM and the IC50 ([3]; 96 h continual exposure) is reported as 16.2 µM. The IC50 ([4]; 96 h continual exposure) was 10.8 µM, the IC50 [5] was 4.7 µM and the IC50 [6] was 5.4 µM. It also gave an IC50 [7] of 16.3 µM, an IC50 [8] of 0.13 µM and an IC50 [9] of 10.8 µM. It also gave an IC50 [10] of 5.4 µM, an IC50 [11] of 2 µM and an IC50 [12] of 1.3 µM. The IC50 [13] was 2.7 µM, the “% Cells in Pre G0 phase of Cell Cycle” value [14] was 12.8% and the synergy with irinotecan ([15]; FIG. 9a) was “synergy”. The synergy with vinorelbine ([15]; FIG. 9b) was “synergy” and the synergy with cisplatin ([15]; FIG. 9c) was “synergy”.

In the case of CC1Cc2cccc(O)c2C(=O)O1 (racemic) [ALM-9, Racemic Mellein], the “cleavage and activation of caspase 3 (immunoblot)” value [16] is reported as “promotes the cleavage and thus the activation of caspase 3”, the IC50 ([1]; Homo sapiens, Malme-3M) is reported as over 960 µM and the IC50 ([2]; Homo sapiens, SK-MEL-28, 96 h continual exposure) is reported as 821 µM. It also gave an IC50 ([3]; Homo sapiens, MCF7, 96 h continual exposure) of 946 µM, an IC50 ([4]; Homo sapiens, MDA-MB-468, 96 h continual exposure) of 283 µM and an IC50 ([5]; Homo sapiens, LNCaP) of over 561 µM. The IC50 ([6]; Homo sapiens, PC-3) was 421 µM, the IC50 [7] was over 561 µM and the IC50 ([8]; Homo sapiens, ZR-75-1) was 281 µM. For the same molecule, the IC50 [9] was over 561 µM, the IC50 ([10]; Homo sapiens, PNT2) was 421 µM and the IC50 ([11]; Homo sapiens, NCI-H23) was over 561 µM. For the same molecule, the IC50 [17] was over 561 µM, the IC50 ([12]; Homo sapiens, HT-29) was 561 µM and the IC50 ([13]; Homo sapiens, RKO) was 494 µM. For the same molecule, the “% Cells in Pre G0 phase of Cell Cycle” value [14] was 30.4%.
